The text below walks through data of patent publication US8748407B2 (The Research Foundation for the State University of New York, priority 2010, dated 2014).

Type in all cases: cell-based
One data set concerns the target T1, GluN1a/2B (Rattus norvegicus, UniProt P35439+Q00960).
T1 construct: expressed in transfected cells; host or cells: HEK-293S
As to the kind of experiment: Whole-cell current recording, NMDA receptor GluN1a/2B. The source says:
(§1) The original cDNAs in pBlueScript encoding rat GluA1, 2 and 3 AMPA receptors and GluK2 kainate receptor were kindly provided by Steve Heinemann. The GluA4 DNA plasmid was kindly provided by Peter Seeburg. The GluK1 plasmid was kindly provided by Geoffrey Swanson. The cDNAs of all three NMDA receptor subunits were gifts from John Woodward. All DNA plasmids were propagated using Escherichia coli host (DH5α) and purified using QIAGEN DNA purification kits.
(§2) All of the receptors were transiently expressed in HEK-293S cell. HEK-293S cells were maintained in Dulbecco's modified Eagle's medium (DMEM) supplemented with 10% fetal bovine serum and 1% penicillin in a 37° C., 5% CO2, humidified incubator. Receptors were transiently transfected by using calcium phosphate or lipofectamine 2000 (Invitrogen). The DNA plasmids encoding green fluorescent protein (GFP) and T-antigen (TAg) were cotransfected in HEK-293 S cells. […]
(§3) The procedure for whole-cell current recording to assay the inhibitory property of an RNA aptamer is known to those of skill in the art and has been previously described^7. […] The whole-cell current was recorded using an Axopatch-200B amplifier at a cutoff frequency of 2-20 kHz by a built-in, eight-pole Bessel filter and digitized at 5-50 kHz sampling frequency using a Digidata 1322A from Axon Instruments (Molecular Devices, Sunnyvale, Calif.). […]

A further data set addresses T2, GluA3 (Rattus norvegicus, UniProt P19492).
T2 construct: expressed in transfected cells; host or cells: HEK-293S
As to the kind of experiment: Whole-cell current recording, GluA3.
Excerpt: as §1, §2, §3

Another data set addresses T3, GluA2Qflip (Rattus norvegicus, UniProt P19491).
T3 construct: expressed in transfected cells; host or cells: HEK-293S
Briefly: Laser-pulse photolysis of caged glutamate, channel-opening kinetics. From the text: The use of the laser-pulse photolysis technique to measure the channel-opening kinetics has been described^7. […] In the laser-pulse photolysis measurement of channel opening, a single laser pulse at 355 nm with a pulse length of 8 ns was generated from a pulsed Q-switched Nd:YAG laser (Continuum, Santa Clara, Calif.). The pulse energy varied in the range of 200-800 μJ, measured at the end of an optical fiber (300 μm core diameter) into which the laser was coupled. […] The current amplitudes obtained from this calibration were compared with the amplitude from the laser measurement with reference to the dose-response relationship. These measurements also allowed us to monitor any damage to the receptors and/or the cell for successive laser experiments with the same cell^7.
To deliver AG56 to a HEK-293 cell, a “Ψ”-shaped flow device was used. […] In all experiments reported in this study, a 6-second preincubation flow protocol was used for full aptamer preincubation. […] The corrected current amplitude was used for data analysis.
The use of this technique allows the investigation of the effect of AG56 on the channel-opening kinetic mechanism of the GluA2Qflip receptors. Before describing how the mechanism of inhibition is elucidated, the kinetic characterization of channel-opening rate process is presented.
A represents the active form of the receptor, L, the ligand, ALn the closed-channel forms, and ALn the open-channel form, K1 the intrinsic dissociation constant of activating ligand and Φ the channel opening equilibrium constant (Φ^−1=kcl/kop). Based on this mechanism and the assumption that the ligand-binding rate was fast as compared to the channel opening, the observed rate constant of channel opening or kobs can be formulated as in equ. 2.
In equ. 2, kcl is the channel-closing rate constant or the lifetime of the channel, τ (τ=1/kcl), kop is the channel-opening rate constant, and n the number of the ligand molecules to bind to the receptor complex to open the channel (i.e., n=1-4). Imax is the maximum current amplitude, and It is the current amplitude at time t.
The mechanism of inhibition was characterized by studying the effect of an inhibitor such as AG56 on the channel-opening rate process^13,14. In general there are three ways in which an ion channel receptor can be inhibited. For instance, an inhibitor binds only to the open-channel state or conformation and then inhibits it (Mechanism 1, uncompetitive mechanism of inhibition or open-channel blockade). Alternatively, an inhibitor binds to both the closed- and open-channel states through a regulatory site (Mechanism 2, noncompetitive mechanism). The observed rate constant, kobs in the presence and absence of an inhibitor can be measured using equ. 3. […] 4 for mechanism 1, and equ. 5 for mechanism 2.
In deriving these equations, one binding site for inhibitor per receptor molecule is assumed. […] 4 or 5 to the overall rate, kobs, is negligible. Under this condition, the effect of the inhibitor on the kcl can be measured^13. Specifically, for both Mechanisms 1 and 2, the effects of the inhibitor on kcl are the same, and can be obtained by equ. 6, which can be derived from either equ. 4 or 5. From equ. 6, the equilibrium dissociation constant of the inhibitor from the open-channel state, KI, can be determined.
For Mechanism 2 or a noncompetitive mechanism of inhibition, the inhibitor will affect kop additionally (equ. 8), if KI<I, I being the molar concentration used to measure the KI value. Consequently the dissociation constant of the inhibitor for the closed-channel conformation can be further determined for Mechanism 2. It should be emphasized that the presence of an inhibitory effect of a noncompetitive inhibitor is due to the fact that the inhibitor must first bind to the closed-channel conformation, as illustrated in Mechanism 2, shown above. […]

Where [1] appears, read: 100 μM photolytically released glutamate.

T3 sequence (P19491 22-883 isoform P19491-2): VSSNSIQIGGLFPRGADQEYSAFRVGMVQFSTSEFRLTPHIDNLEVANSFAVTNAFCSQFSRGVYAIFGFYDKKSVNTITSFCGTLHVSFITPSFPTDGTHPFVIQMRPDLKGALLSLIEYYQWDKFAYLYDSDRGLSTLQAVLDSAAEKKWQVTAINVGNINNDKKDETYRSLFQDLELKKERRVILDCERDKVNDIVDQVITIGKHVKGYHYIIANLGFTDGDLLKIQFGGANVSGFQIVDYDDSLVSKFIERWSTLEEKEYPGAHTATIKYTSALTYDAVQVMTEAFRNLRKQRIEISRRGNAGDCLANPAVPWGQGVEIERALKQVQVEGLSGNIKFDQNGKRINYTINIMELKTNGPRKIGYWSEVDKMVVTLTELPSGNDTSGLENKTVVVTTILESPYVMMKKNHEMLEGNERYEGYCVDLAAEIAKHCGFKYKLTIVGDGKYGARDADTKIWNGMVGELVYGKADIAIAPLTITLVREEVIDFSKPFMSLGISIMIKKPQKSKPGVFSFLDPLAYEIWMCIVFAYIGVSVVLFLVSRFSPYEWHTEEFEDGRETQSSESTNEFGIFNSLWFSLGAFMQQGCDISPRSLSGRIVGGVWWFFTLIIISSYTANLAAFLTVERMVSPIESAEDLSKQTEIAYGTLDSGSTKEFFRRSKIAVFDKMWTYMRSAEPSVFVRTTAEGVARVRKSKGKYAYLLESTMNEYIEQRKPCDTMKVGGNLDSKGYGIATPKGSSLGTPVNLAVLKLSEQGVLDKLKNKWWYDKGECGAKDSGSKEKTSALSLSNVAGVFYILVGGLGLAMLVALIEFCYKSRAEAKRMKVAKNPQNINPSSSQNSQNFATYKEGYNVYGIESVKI
T2 sequence (P19492 23-888): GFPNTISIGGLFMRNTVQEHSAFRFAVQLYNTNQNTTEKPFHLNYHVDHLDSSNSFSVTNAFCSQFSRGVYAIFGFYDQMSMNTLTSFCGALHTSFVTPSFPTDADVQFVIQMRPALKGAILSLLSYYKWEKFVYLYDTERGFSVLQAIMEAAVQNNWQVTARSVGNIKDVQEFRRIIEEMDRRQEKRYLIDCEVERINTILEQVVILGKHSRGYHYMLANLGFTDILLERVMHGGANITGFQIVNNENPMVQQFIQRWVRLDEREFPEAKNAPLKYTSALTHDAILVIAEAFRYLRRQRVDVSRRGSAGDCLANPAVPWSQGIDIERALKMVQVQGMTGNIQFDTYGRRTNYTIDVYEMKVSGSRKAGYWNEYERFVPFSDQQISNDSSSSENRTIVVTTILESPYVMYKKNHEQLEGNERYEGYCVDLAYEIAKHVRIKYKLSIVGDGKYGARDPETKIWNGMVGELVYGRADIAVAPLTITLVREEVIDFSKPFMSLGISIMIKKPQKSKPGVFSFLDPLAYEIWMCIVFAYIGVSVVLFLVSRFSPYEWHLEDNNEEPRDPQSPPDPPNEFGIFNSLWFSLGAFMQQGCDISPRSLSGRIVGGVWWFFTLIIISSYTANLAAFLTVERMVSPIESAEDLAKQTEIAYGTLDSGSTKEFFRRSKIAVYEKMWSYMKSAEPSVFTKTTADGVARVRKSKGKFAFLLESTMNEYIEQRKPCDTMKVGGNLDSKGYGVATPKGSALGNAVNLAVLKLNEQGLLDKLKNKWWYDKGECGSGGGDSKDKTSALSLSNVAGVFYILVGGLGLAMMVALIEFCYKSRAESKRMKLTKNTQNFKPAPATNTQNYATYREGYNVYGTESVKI
T1 sequence (Q00960 27-1482, other chains not shown): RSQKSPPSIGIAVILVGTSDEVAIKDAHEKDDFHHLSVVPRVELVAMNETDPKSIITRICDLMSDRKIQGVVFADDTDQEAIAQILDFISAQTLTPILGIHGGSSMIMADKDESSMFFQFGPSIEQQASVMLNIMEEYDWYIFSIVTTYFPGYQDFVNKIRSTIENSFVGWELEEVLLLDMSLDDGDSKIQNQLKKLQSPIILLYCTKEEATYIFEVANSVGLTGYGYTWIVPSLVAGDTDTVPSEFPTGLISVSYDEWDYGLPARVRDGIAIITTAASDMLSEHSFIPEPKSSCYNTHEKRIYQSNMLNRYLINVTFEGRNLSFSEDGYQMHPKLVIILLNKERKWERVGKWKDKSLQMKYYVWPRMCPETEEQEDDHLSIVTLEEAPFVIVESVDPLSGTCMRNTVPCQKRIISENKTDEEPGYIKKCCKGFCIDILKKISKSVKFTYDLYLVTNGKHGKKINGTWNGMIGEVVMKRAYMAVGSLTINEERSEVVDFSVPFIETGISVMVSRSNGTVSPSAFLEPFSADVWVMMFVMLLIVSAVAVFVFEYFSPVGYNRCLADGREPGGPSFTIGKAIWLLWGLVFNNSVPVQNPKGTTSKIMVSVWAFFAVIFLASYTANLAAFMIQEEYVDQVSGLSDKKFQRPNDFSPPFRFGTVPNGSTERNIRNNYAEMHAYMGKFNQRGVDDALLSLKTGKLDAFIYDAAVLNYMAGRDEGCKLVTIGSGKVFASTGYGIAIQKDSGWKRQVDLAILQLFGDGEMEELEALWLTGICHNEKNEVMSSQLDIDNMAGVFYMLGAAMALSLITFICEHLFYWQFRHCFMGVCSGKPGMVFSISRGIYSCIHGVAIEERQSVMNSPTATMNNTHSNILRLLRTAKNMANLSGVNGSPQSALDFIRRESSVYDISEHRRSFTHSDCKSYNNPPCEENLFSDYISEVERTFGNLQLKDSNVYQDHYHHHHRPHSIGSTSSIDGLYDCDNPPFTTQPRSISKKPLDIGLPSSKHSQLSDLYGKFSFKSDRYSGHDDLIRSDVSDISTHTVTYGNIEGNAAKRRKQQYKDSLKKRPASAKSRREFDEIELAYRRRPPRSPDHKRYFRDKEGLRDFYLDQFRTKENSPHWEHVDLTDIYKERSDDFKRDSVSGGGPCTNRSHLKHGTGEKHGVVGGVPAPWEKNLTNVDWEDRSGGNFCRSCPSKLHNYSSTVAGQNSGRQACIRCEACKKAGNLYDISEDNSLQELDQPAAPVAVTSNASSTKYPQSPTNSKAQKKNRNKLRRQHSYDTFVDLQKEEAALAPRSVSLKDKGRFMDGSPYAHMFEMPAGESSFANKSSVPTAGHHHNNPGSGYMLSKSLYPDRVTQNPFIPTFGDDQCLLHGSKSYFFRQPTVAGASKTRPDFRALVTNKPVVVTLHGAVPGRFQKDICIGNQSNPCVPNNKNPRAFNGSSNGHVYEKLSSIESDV

With “AG56: 56-nucleotide truncated version of AG1407, RNA aptamer (GGGAGAUUGUGAAGCGUAGGCUCGAGUUUGUCCCGCGAGCCAAAGAUUCCAGACCC; RNA, backbone not given here)”, the “effect on NMDA receptor channel” value in the data set with GluN1a/2B is “did not affect”. In addition, in the data set with GluA3, the “inhibition of the closed-channel conformation” value is recorded as “no inhibitory effect” and the “inhibition of the open-channel conformation” value is “similarly inhibited the open-channel conformation”. In addition, in the data set with GluA2Qflip (setting [1]), the “effect on channel-closing rate (kcl)” value is on record as “inhibited the rate of channel closing” and the “effect on current amplitude” value was “did not affect the current amplitude”. The “kobs value, which reflected kcl” value with GluA2Qflip (100 μM photolytically released glutamate, +0.75 μM AG56 (control 2,200)) is 1,600 s^−1. For the same substance, the “kobs value, which reflected kop” value with GluA2Qflip (340 μM photolytically released glutamate, 0.75 μM AG56 (absence 5,128)) is listed as 4,405 s^−1. The “effect on current amplitude” value with GluA2Qflip (higher glutamate concentration) is “reduced the current amplitude”. Further, in the data set with GluA2Qflip (increased glutamate concentration), the “effect on channel-opening rate constant (kop)” value is “did not inhibit kop”.
